The conditions of data set [1]: co-administration with ketoconazole; inhibition of the metabolic elimination of cisapride; cited from earlier work.
Data set [2] concerns the target T1, 5-HT3 receptor subtypes derived from N1E-115 cells (Mus musculus, UniProt P23979).
T1 construct: 5-HT3 receptor subtypes derived from N1E-115 cells; host or cells: N1E-115 cells
T1 sequence (P23979 24-489): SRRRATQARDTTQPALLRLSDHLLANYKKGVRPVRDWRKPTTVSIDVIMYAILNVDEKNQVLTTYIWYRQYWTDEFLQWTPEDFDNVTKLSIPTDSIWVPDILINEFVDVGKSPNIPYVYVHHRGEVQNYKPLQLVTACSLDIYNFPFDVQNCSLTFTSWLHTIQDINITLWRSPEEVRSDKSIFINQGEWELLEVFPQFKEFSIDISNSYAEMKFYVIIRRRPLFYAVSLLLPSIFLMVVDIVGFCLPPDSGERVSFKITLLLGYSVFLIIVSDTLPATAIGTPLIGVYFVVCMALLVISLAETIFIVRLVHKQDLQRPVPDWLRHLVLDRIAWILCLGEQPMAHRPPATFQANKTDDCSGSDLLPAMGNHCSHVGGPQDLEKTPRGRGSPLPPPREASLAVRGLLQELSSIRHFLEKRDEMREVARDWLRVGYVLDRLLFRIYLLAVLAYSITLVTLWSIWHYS
Description: Receptor binding, 5-HT3 receptor (radioligand binding, Cerep). Conditions: ratio of IC50 at 5-HT3 to IC50 at 5-HT4. The protocol:
Receptor Binding 5-HT3 Receptor
Following incubation with the appropriate ligands, the preparations were rapidly filtered under vacuum through GF/B glass fiber filters and washed with ice-old buffer using a Brandel or Packard cell harvester.
Specific radioligand binding to the receptor was defined as the difference between total binding and nonspecific binding determined in the presence of an excess of unlabeled ligand. Results were expressed as a percent inhibition of specific binding obtained in the presence of the compounds.

With `COc1cc(N)c(Cl)cc1C(=O)N[C@H]1CCN(CCCOc2ccc(F)cc2)C[C@H]1OC` (racemic) [(±) Cisapride, cis-4-amino-5-chloro-N-[1-[3-(4-fluorophenoxy)propyl]-3-methoxy-4-piperidinyl]-2-methoxybenzamide], the “increase of the steady-state plasma levels” value in data set [1] is listed as 8 fold.
For `COc1cc(N)c(Cl)cc1C(=O)NC1CCNCC1OC` (racemic) [(±) Norcisapride, 4-amino-5-chloro-N-(3-methoxy-4-piperidinyl)-2-methoxybenzamide], the “5-HT3/5-HT4 Ratio” value in data set [2] turned out to be 0.012.
On the same count and under the same terms, to `COc1cc(N)c(Cl)cc1C(=O)NC1CCNCC1OC` (single isomer, unassigned; (+)) [(+) Norcisapride] belongs 0.014.
With `COc1cc(N)c(Cl)cc1C(=O)NC1CCNCC1OC` (single isomer, unassigned; (-)) [(−) Norcisapride], the “5-HT3/5-HT4 Ratio” value in data set [2] is on record as 0.023.

These data come from patent publication US6552045B2 (Sepracor Inc., priority 1999, dated 2003).
